Source: PubChem BioAssay AID256 (DTP/NCI, 2004)
Where “and” joins values, the source holds several entries; their conditions need not be identical. Equal entries are not always repeated. Toxic doses and inconclusive results are not listed.

System: CD2F1 mice, L1210 leukemia ip, survival T/C
Experiment: NCI In Vivo Anticancer Drug Screen. Data for tumor model L1210 Leukemia (intraperitoneal) in CD2F1 (CDF1) mice
Conditions: higher = longer survival
How it was run: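 In this screen, transplantable tumors were grown in mice given either the compound or its vehicle. Results were expressed as the treated measurement relative to the control measurement.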

[1] = endpoint: mean survival time, dose: 100.0 mg/kg/injection, schedule: Q01DX009 (ip), vehicle: saline with Tween-80

For `Nc1cc(Cl)c2[nH]cnc2n1`, the T/C (endpoint: mean survival time, dose: 6.25 mg/kg/injection, schedule: Q01DX009 (ip), vehicle: distilled water + Tween-80) was 107 % of control, the T/C (endpoint: mean survival time, dose: 6.25 mg/kg/injection, schedule: Q01DX009 (ip), vehicle: water) was 102 % of control and the T/C (endpoint: mean survival time, dose: 12.5 mg/kg/injection, schedule: Q01DX009 (ip), vehicle: distilled water + Tween-80) was 120 % of control. The T/C (endpoint: mean survival time, dose: 12.5 mg/kg/injection, schedule: Q01DX009 (ip), vehicle: water) was 113 % of control, the T/C (endpoint: mean survival time, dose: 25.0 mg/kg/injection, schedule: Q01DX009 (ip), vehicle: distilled water + Tween-80) was 150 % of control and the T/C (endpoint: mean survival time, dose: 50.0 mg/kg/injection, schedule: Q01DX009 (ip), vehicle: distilled water + Tween-80) was 150 % of control and 164 % of control. The T/C (endpoint: mean survival time, dose: 50.0 mg/kg/injection, schedule: Q04DX003 (ip), vehicle: Klucel (hydroxypropylcellulose) (HPC)) was 118 % of control and 110 % of control, the T/C (endpoint: mean survival time, dose: 85.0 mg/kg/injection, schedule: Q04DX003 (ip), vehicle: saline with Tween-80) was 108 % of control and the T/C (endpoint: mean survival time, dose: 100.0 mg/kg/injection, schedule: Q01DX009 (ip), vehicle: distilled water + Tween-80) was 151 % of control and 185 % of control. For the same compound, the T/C (endpoint: mean survival time, dose: 100.0 mg/kg/injection, schedule: Q04DX003 (ip), vehicle: Klucel (hydroxypropylcellulose) (HPC)) was 115 % of control and 109 % of control, the T/C (endpoint: mean survival time, dose: 200.0 mg/kg/injection, schedule: Q01DX009 (ip), vehicle: distilled water + Tween-80) was 153 % of control and 228 % of control and the T/C (endpoint: mean survival time, dose: 200.0 mg/kg/injection, schedule: Q04DX003 (ip), vehicle: Klucel (hydroxypropylcellulose) (HPC)) was 108 % of control. For the same compound, the T/C (endpoint: mean survival time, dose: 300.0 mg/kg/injection, schedule: Q04DX003 (ip), vehicle: Klucel (hydroxypropylcellulose) (HPC)) was 120 % of control and 109 % of control, the T/C (endpoint: mean survival time, dose: 400.0 mg/kg/injection, schedule: Q01DX009 (ip), vehicle: distilled water + Tween-80) was 100 % of control and the T/C (endpoint: median survival time, dose: 6.0 mg/kg/injection, schedule: Q01DX009 (ip), vehicle: Klucel (hydroxypropylcellulose) (HPC)) was 108 % of control. The T/C (endpoint: median survival time, dose: 12.0 mg/kg/injection, schedule: Q01DX009 (ip), vehicle: Klucel (hydroxypropylcellulose) (HPC)) was 119 % of control, the T/C (endpoint: median survival time, dose: 25.0 mg/kg/injection, schedule: Q01DX005 (ip), vehicle: saline with Tween-80) was 120 % of control and the T/C (endpoint: median survival time, dose: 25.0 mg/kg/injection, schedule: Q01DX009 (ip), vehicle: Klucel (hydroxypropylcellulose) (HPC)) was 152 % of control. The T/C (endpoint: median survival time, dose: 25.0 mg/kg/injection, schedule: Q01DX009 (ip), vehicle: saline with Tween-80) was 153 % of control, the T/C (endpoint: median survival time, dose: 50.0 mg/kg/injection, schedule: Q01DX009 (ip), vehicle: Klucel (hydroxypropylcellulose) (HPC)) was 172 % of control and the T/C (endpoint: median survival time, dose: 50.0 mg/kg/injection, schedule: Q01DX009 (ip), vehicle: saline with Tween-80) was 188 % of control. The T/C (endpoint: median survival time, dose: 100.0 mg/kg/injection, schedule: Q01DX005 (ip), vehicle: saline with Tween-80) was 161 % of control, the T/C (endpoint: median survival time, dose: 100.0 mg/kg/injection, schedule: Q01DX009 (ip), vehicle: Klucel (hydroxypropylcellulose) (HPC)) was 178 % of control and the T/C (endpoint: median survival time, dose: 100.0 mg/kg/injection, schedule: Q01DX009 (ip), vehicle: saline with Tween-80) was 160 % of control. The T/C (endpoint: median survival time, dose: 200.0 mg/kg/injection, schedule: Q01DX005 (ip), vehicle: saline with Tween-80) was 159 % of control.

For `O=C1NC(=O)C2CCCCC12` (configuration not stated), the T/C [1] was 100 % of control, the T/C (endpoint: mean survival time, dose: 100.0 mg/kg/injection, schedule: Q04DX003 (ip), vehicle: saline with Tween-80) was 97 % of control and the T/C (endpoint: mean survival time, dose: 200.0 mg/kg/injection, schedule: Q01DX009 (ip), vehicle: saline with Tween-80) was 95 % of control. The T/C (endpoint: mean survival time, dose: 200.0 mg/kg/injection, schedule: Q04DX003 (ip), vehicle: saline with Tween-80) was 101 % of control, the T/C (endpoint: mean survival time, dose: 400.0 mg/kg/injection, schedule: Q01DX009 (ip), vehicle: saline with Tween-80) was 95 % of control and the T/C (endpoint: mean survival time, dose: 400.0 mg/kg/injection, schedule: Q04DX003 (ip), vehicle: saline with Tween-80) was 95 % of control.

For `O=[N+]([O-])c1ccc(/C(CBr)=N/N2CCCCC2)cc1`, the T/C (endpoint: mean survival time, dose: 100.0 mg/kg/injection, schedule: Q01DX001 (ip), vehicle: saline) was 94 % of control, the T/C (endpoint: mean survival time, dose: 200.0 mg/kg/injection, schedule: Q01DX001 (ip), vehicle: saline) was 93 % of control and the T/C (endpoint: mean survival time, dose: 400.0 mg/kg/injection, schedule: Q01DX001 (ip), vehicle: saline) was 92 % of control.

In the case of `CC(=O)Nc1ccc(CN2CC(C)N(N)C(C)C2)cc1` (configuration not stated), the T/C (endpoint: mean survival time, dose: 12.5 mg/kg/injection, schedule: Q01DX009 (ip), vehicle: Klucel (hydroxypropylcellulose) (HPC)) is reported as 103 % of control, the T/C (endpoint: mean survival time, dose: 25.0 mg/kg/injection, schedule: Q01DX009 (ip), vehicle: Klucel (hydroxypropylcellulose) (HPC)) is reported as 98 % of control and the T/C (endpoint: mean survival time, dose: 50.0 mg/kg/injection, schedule: Q01DX009 (ip), vehicle: Klucel (hydroxypropylcellulose) (HPC)) is reported as 98 % of control. The T/C (endpoint: mean survival time, dose: 100.0 mg/kg/injection, schedule: Q01DX009 (ip), vehicle: Klucel (hydroxypropylcellulose) (HPC)) was 101 % of control, the T/C (endpoint: mean survival time, dose: 200.0 mg/kg/injection, schedule: Q01DX009 (ip), vehicle: Klucel (hydroxypropylcellulose) (HPC)) was 103 % of control and the T/C (endpoint: mean survival time, dose: 400.0 mg/kg/injection, schedule: Q01DX009 (ip), vehicle: Klucel (hydroxypropylcellulose) (HPC)) was 89 % of control.

For `CN(C(=O)Nc1ccccc1)c1ccccc1`, the T/C (endpoint: mean survival time, dose: 50.0 mg/kg/injection, schedule: Q01DX009 (ip), vehicle: other) was 104 % of control, the T/C (endpoint: mean survival time, dose: 100.0 mg/kg/injection, schedule: Q01DX009 (ip), vehicle: other) was 97 % of control and the T/C (endpoint: mean survival time, dose: 200.0 mg/kg/injection, schedule: Q01DX009 (ip), vehicle: other) was 97 % of control.

With `O=C1c2ccccc2C(=O)N1CCc1c[nH]c2ccccc12` the T/C (endpoint: mean survival time, dose: 100.0 mg/kg/injection, schedule: Q01DX001 (ip), vehicle: saline with Tween-80) was 102 % of control, the T/C (endpoint: mean survival time, dose: 200.0 mg/kg/injection, schedule: Q01DX001 (ip), vehicle: saline with Tween-80) was 104 % of control and the T/C (endpoint: mean survival time, dose: 400.0 mg/kg/injection, schedule: Q01DX001 (ip), vehicle: saline with Tween-80) was 104 % of control.

In the case of `ClCc1ccc(Cl)c(Cl)c1Cl`, the T/C (endpoint: mean survival time, dose: 25.0 mg/kg/injection, schedule: Q01DX009 (ip), vehicle: saline with Tween-80) is reported as 100 % of control, the T/C (endpoint: mean survival time, dose: 50.0 mg/kg/injection, schedule: Q01DX009 (ip), vehicle: saline with Tween-80) is reported as 100 % of control and the T/C [1] is reported as 100 % of control.

For `CC(C)(C)c1cc(N)cc(C(C)(C)C)c1O`, the T/C (endpoint: mean survival time, dose: 50.0 mg/kg/injection, schedule: Q04DX002 (ip), vehicle: saline with Tween-80) was 91 % of control, the T/C (endpoint: mean survival time, dose: 100.0 mg/kg/injection, schedule: Q04DX002 (ip), vehicle: saline with Tween-80) was 98 % of control and the T/C (endpoint: mean survival time, dose: 200.0 mg/kg/injection, schedule: Q04DX002 (ip), vehicle: saline with Tween-80) was 98 % of control.
